From ChEMBL document CHEMBL4219133, “Studies on non-steroidal inhibitors of aromatase enzyme; 4-(aryl/heteroaryl)-2-(pyrimidin-2-yl)thiazole derivatives” (Bioorg Med Chem, 2018) come the findings set out here.

The target of one data set is T1, Aromatase (Homo sapiens, UniProt P11511).
T1 sequence (P11511 whole entry): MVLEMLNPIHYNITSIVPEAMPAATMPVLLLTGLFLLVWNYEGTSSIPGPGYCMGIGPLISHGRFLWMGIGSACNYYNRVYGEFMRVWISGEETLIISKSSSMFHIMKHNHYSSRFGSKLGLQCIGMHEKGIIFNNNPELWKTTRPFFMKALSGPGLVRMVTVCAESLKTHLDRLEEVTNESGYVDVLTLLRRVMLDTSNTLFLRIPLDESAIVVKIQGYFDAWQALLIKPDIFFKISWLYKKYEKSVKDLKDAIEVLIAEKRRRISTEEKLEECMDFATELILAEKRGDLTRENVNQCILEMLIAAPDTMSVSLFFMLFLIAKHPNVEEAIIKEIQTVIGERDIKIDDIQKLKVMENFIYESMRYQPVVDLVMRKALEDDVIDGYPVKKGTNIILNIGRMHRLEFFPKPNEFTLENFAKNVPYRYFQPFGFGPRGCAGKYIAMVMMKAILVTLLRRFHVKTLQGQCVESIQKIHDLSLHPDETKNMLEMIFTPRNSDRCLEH

Data set [1] can be described thus: Antiproliferative activity against HEK293 cells assessed as cell viability at 10^-4 M after 6 hrs by MTT assay relative to control. Conditions: human, read-out: Activity. The class given is cell-based. (In general: Tetrazolium dyes change colour on reduction, which living cells bring about.)
For another data set, the system named is MCF7. The data set can be described thus: Antiproliferative activity against human MCF7 cells assessed as cell viability at 10^-4 M after 6 hrs by MTT assay relative to control. The class given is functional. To be noted: MCF7, 6 h, read-out: Activity.

Description for Aromatase: Inhibition of aromatase (unknown origin)

A word on the IC50: it is the concentration at which inhibition is half-maximal. Consider `c1cncc(-c2csc(-c3cccnc3)n2)c1`, for which inhibition against Aromatase was half-maximal at 0.004 µM (IC50).

Molecule `c1cncc(-c2nsc(-c3cccnc3)n2)c1` came in with an IC50 against Aromatase of 0.24 µM. With `c1ccc(-c2nsc(-c3ccccc3)n2)cc1`, the IC50 against Aromatase was > 50 µM. In the case of `COc1ccccc1-c1csc(-c2ncccn2)n1`, the viability at 6 h, 100 µM in data set [1] was found to be 87%. Moreover, the viability at 100 µM in the data set on MCF7 was 130%. With `c1cnc(-c2nc(-c3ccco3)cs2)nc1`, the viability at 6 h, 100 µM in data set [1] worked out at 59%. In the data set on MCF7, the viability at 100 µM amounted to 76%. In the same order, the values of `COc1ccc(-c2csc(-c3ncccn3)n2)cc1` are 101% and 127%.

As for `Clc1cccc(-c2csc(-c3ncccn3)n2)c1`, in data set [1], the viability at 6 h, 100 µM is 107%. Moreover, in the data set with MCF7, the viability at 100 µM stood at 86.9%. With `c1ccc(-c2csc(-c3ncccn3)n2)nc1`, the viability at 6 h, 100 µM in data set [1] was 101%. For the same molecule, the viability at 100 µM in the data set with MCF7 worked out at 74.2%. Turning to `c1cnc(-c2nc(-c3cc4ccccc4s3)cs2)nc1`, the viability at 6 h, 100 µM in data set [1] was found to be 83.5%. In addition, the viability at 100 µM in the data set on MCF7 stood at 120%. Regarding `Oc1ccc(-c2csc(-c3ncccn3)n2)cc1`, the viability at 6 h, 100 µM in data set [1] was 94%. Also, the viability at 100 µM in the data set on MCF7 is 227%. As for `Oc1ccccc1-c1csc(-c2ncccn2)n1`, in data set [1], the viability at 6 h, 100 µM was 131%. Also, the viability at 100 µM in the data set with MCF7 stood at 129%. In the same order, the values of `c1cnc(-c2nc(-c3ccncc3)cs2)nc1` are 101% and 76.6%. As to `c1cnc(-c2nc(-c3cccs3)cs2)nc1`, the viability at 6 h, 100 µM in data set [1] amounted to 77%. Moreover, the viability at 100 µM in the data set on MCF7 came to 136%.

Take `Oc1cccc(-c2csc(-c3ncccn3)n2)c1`: the viability at 6 h, 100 µM in data set [1] amounted to 113%. The viability at 100 µM with MCF7 turned out to be 112%. Regarding `Cn1c(-c2csc(-c3ncccn3)n2)nc2ccccc21`, the viability at 6 h, 100 µM in data set [1] was determined as 102%. For the same molecule, the viability at 100 µM in the data set with MCF7 is 128%. For the molecule `Cc1ccc(O)c(-c2csc(-c3ncccn3)n2)c1`, the viability at 6 h, 100 µM in data set [1] amounted to 91.8%. In addition, the viability at 100 µM in the data set with MCF7 was found to be 195%. As to `c1cnc(-c2nc(-c3nc4ccccc4s3)cs2)nc1`, the viability at 6 h, 100 µM in data set [1] turned out to be 117%. In addition, the viability at 100 µM in the data set with MCF7 was 60.7%.

On to `c1cnc(-c2nc(-c3cccnc3)cs2)nc1`, for which the viability at 6 h, 100 µM in data set [1] amounted to 89%. The viability at 100 µM with MCF7 came out at 75.5%. In the case of `Oc1ccc(Cl)cc1-c1csc(-c2ncccn2)n1`, in data set [1], the viability at 6 h, 100 µM stood at 78%. Further, the viability at 100 µM in the data set on MCF7 came to 162%. Turning to `COc1cccc(-c2csc(-c3ncccn3)n2)c1`, the viability at 6 h, 100 µM in data set [1] came to 95%. Moreover, the viability at 100 µM in the data set with MCF7 was 137%. `c1cnc(-c2nc(-c3cc4ccccc4o3)cs2)nc1`: the viability at 6 h, 100 µM in data set [1] came out at 108%. Besides, in the data set with MCF7, the viability at 100 µM is 131%. With `Clc1ccccc1-c1csc(-c2ncccn2)n1`, the viability at 6 h, 100 µM in data set [1] came to 89.4%. Also, the viability at 100 µM in the data set on MCF7 was determined as 125%.

Consider `COc1ccc(O)c(-c2csc(-c3ncccn3)n2)c1`, for which the viability at 6 h, 100 µM in data set [1] was 81.3%. In addition, the viability at 100 µM in the data set on MCF7 came to 208%. Take `Clc1ccc(-c2csc(-c3ncccn3)n2)cc1`: the viability at 6 h, 100 µM in data set [1] is 101%. Moreover, in the data set on MCF7, the viability at 100 µM worked out at 146%.
